What was measured:
[1] = system: kynurenine; assay: Tumoral kynurenine levels, CT26 murine tumor model (Example 13); format: in vivo, mouse; conditions: Study 2; INCB024360 oral gavage twice daily
[2] = system: NK cells, γδT cells and CD8+ T cells; conditions: upon treatment; cited from earlier work
[3] = biological target: T1, CTLA-4 (Rattus norvegicus, UniProt Q62859); conditions: CTLA-4 from rats; cited from earlier work
T1 sequence (Q62859 1-223): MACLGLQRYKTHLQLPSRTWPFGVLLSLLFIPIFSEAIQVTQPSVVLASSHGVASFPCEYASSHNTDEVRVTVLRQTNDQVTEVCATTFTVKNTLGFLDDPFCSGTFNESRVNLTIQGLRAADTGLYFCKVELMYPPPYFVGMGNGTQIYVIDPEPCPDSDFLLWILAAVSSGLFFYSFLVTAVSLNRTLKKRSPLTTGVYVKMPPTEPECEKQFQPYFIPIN

[4] = biological target: CTLA-4 (Mus musculus, UniProt P09793); conditions: CTLA-4 from mice; cited from earlier work
[5] = biological target: T2, CTLA-4 (Oryctolagus cuniculus, UniProt P42072); conditions: CTLA-4 from rabbits; cited from earlier work
T2 sequence (P42072 36-223): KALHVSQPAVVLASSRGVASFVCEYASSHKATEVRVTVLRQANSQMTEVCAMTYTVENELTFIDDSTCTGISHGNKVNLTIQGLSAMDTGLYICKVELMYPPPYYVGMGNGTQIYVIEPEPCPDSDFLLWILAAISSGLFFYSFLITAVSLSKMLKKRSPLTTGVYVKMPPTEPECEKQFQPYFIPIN

CTLA-4 (Mus musculus, UniProt P09793), sequence (P09793 36-223): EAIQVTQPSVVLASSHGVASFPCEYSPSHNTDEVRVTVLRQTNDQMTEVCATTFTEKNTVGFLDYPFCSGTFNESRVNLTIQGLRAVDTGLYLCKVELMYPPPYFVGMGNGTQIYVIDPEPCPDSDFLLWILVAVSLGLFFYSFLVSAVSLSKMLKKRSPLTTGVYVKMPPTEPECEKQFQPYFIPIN

## NS(=O)(=O)NCCNc1nonc1C(=NO)Nc1ccc(F)c(Br)c1 [INCB024360]
[1]
  Intratumoral kynurenine levels, SYN2028 compared with INCB024360: similar

## recombinant human IL-15: recombinant human IL-15 of a first-in-human clinical trial
[2]
  expansion of NK cells: 10 fold
  proliferation of γδT cells and CD8+ T cells: significantly increased

## Ipilimumab
[3]
  cross-reactivity with or binding to CTLA-4: did not show cross-reactivity with or binding to
[4]
  cross-reactivity with or binding to CTLA-4: did not show cross-reactivity with or binding to
[5]
  cross-reactivity with or binding to CTLA-4: did not show cross-reactivity with or binding to

Source: US11471494B2, “Microorganisms programmed to produce immune modulators and anti-cancer therapeutics in tumor cells” (Synlogic Operating Company, Inc., priority 2017, dated 2022)
